Measurements reported in ChEMBL document CHEMBL5543140 (J Med Chem, 2024).
pEC50, pKi: −log10 of the molar value. Calls of active or inactive are those of the source. The rule behind the calls is not given here.

How the values were obtained:
[1] = biological target: T1, 5-hydroxytryptamine receptor 2A (Homo sapiens, UniProt P28223); test: Displacement of [3H]LSD from human 5-HT2A receptor expressed in HEK293 cell membrane incubated for 90 mins by microbeta liquid scintillation counting method; format: cell membranes; conditions: for pKi: read-out: Ki; for Ki: read-out: pKi (converted)
Mus musculus [2] = test: Psychedelic effect in C57BL/6J mouse assessed as number of head-twitch responses by visual observation at 3 mg/kg, po measured for 3 mins at 160 to 170 min; format: functional; conditions: 0.05 h
[3] = biological target: T2, 5-hydroxytryptamine receptor 2C (Homo sapiens, UniProt P28335); test: Displacement of [3H]LSD from human 5-HT2C receptor expressed in HEK293 cell membrane incubated for 90 mins by microbeta liquid scintillation counting method; format: cell membranes
T2 sequence (P28335 whole entry): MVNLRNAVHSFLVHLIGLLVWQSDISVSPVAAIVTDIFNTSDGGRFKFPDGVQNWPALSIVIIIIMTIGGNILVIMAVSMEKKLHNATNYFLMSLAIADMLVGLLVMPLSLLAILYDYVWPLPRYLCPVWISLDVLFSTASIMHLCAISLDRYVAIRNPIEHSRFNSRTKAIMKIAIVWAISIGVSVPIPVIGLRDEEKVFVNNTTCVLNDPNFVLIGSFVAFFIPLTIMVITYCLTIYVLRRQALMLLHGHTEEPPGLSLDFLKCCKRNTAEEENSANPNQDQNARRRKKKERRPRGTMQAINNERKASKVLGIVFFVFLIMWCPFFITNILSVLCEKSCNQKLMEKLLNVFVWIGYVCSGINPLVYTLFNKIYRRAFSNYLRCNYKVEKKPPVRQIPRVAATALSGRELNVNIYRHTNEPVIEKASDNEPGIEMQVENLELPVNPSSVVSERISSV

[4] = biological target: T3, 5-hydroxytryptamine receptor 2B (Homo sapiens, UniProt P41595); test: Displacement of [3H]LSD from human 5-HT2B receptor expressed in HEK293 cell membrane incubated for 90 mins by microbeta liquid scintillation counting method; format: cell membranes
Mus musculus [5] = test: Psychedelic effect in C57BL/6J mouse assessed as number of head-twitch responses by visual observation at 3 mg/kg, po measured for 3 mins at 5 to 25 min; format: functional; conditions: 0.05 h
[6] = biological target: T1, 5-hydroxytryptamine receptor 2A; test: Agonist activity at human 5-HT2A receptor expressed in HEK293 cells assessed as IP2 production measured after 30 mins incubation by HTRF assay; format: functional, cell-based; conditions: for pEC50: read-out: EC50; for EC50: hek293
Mus musculus [7] = test: Psychedelic effect in C57BL/6J mouse assessed as number of head-twitch responses by visual observation at 3 to 30 mg/kg, po; format: functional, organism-based; conditions: dose 3-30 mg/kg
[8] = Metabolic stability in Sprague-Dawley rat liver microsomes assessed as deuteration effect measured upto 120 mins by LC-MS/MS analysis; format: ADME, Microsome; conditions: 2 h
[9] = Metabolic stability of the compound assessed as recombinant human MAO-mediated oxidative metabolism by measuring compound remaining measured upto 120 mins by LC-MS/MS analysis; format: ADME; conditions: 2 h
[10] = biological target: T1, 5-hydroxytryptamine receptor 2A; test: Agonist activity at human 5-HT2A receptor expressed in HEK293 cells assessed as maximal IP2 production measured after 30 mins incubation by HTRF assay relative to control; format: functional, cell-based; conditions: filed as agonist
[11] = Lipophilicity, logP of the compound; format: physicochemical; conditions: octanol/water
[12] = biological target: Adrenergic receptor alpha-2 (Rattus norvegicus) (UniProt P22086+P19328+P22909); test: Displacement of [3H]RX 821002 from rat cerebral cortex alpha2 adrenergic receptor assessed as remaining activity at 10 uM after 60 mins by scintillation counting method relative to control
[13] = biological target: Muscarinic acetylcholine receptor M1 (Homo sapiens) (UniProt P11229); test: Displacement of [3H]-Pirenzepine from human muscarinic M1 expressed in CHO-K1 cells membrane at 10 uM incubated for 60 mins by microbeta liquid scintillation counting analysis; format: cell membranes; conditions: Cell membrane
[14] = biological target: Muscarinic acetylcholine receptor M4 (Homo sapiens) (UniProt P08173); test: Displacement of [3H]4-DAMP from human recombinant muscarinic M4 receptor expressed in HEK293 cells at 10 uM incubated for 60 mins by radiometric based scintillation counter assay relative to control; format: cell-based
Mus musculus [15] = test: Locomotor activity in C57BL/6J mouse assessed as distance traveled at 1 mg/kg, ip measured for 15 to 25 mins; format: functional; conditions: time 15-25 min
[16] = biological target: 5-hydroxytryptamine receptor 2C (Homo sapiens) (UniProt P28335); test: Agonist activity at human 5-HT2C receptor expressed in HEK293 cells assessed as maximal IP2 production measured after 30 mins incubation by HTRF assay relative to control; format: functional, cell-based; conditions: filed as agonist
[17] = biological target: T4, 5-hydroxytryptamine receptor 1A (Homo sapiens) (UniProt P08908); test: Agonist activity at human 5-HT1A receptor expressed in HEK293T cells co-transfected with 22F-Glosensor assessed as inhibition of cAMP production measured after 30 mins incubation by Microbeta2Micro-plate counter analysis; format: functional, cell-based; conditions: filed as agonist
T4 sequence (whole entry): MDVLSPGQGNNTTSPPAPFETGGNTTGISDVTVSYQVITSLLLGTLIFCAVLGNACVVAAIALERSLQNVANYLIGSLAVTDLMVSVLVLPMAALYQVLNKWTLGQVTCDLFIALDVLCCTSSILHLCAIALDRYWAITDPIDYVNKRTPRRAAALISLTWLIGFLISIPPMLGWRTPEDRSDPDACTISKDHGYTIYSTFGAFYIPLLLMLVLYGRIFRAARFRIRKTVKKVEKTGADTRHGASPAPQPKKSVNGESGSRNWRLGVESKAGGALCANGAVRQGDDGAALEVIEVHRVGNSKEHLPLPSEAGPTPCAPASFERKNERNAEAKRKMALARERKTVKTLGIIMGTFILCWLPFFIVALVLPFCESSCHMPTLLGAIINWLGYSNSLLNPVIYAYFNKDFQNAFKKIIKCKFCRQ

[18] = biological target: Muscarinic acetylcholine receptor M5 (Homo sapiens) (UniProt P08912); test: Displacement of [3H]4-DAMP from human recombinant muscarinic M5 receptor expressed in HEK293 cells at 10 uM incubated for 60 mins by radiometric based scintillation counter assay relative to control; format: cell-based
[19] = biological target: T3, 5-hydroxytryptamine receptor 2B; test: Agonist activity at human 5-HT2B receptor expressed in CHO cells assessed as maximal IP2 production measured after 30 mins incubation by HTRF assay relative to control; format: functional, cell-based
[20] = biological target: Voltage-dependent L-type calcium channel subunit alpha-1C (Homo sapiens, UniProt Q13936); test: Binding affinity to human Calcium channel L-type (verapamil site) at 10 uM measured after 180 mins by [3H]D888-Radiometric assay relative to control
Mus musculus [21] = test: Psychedelic effect in C57BL/6J mouse assessed as induction of 5-HT2A receptor dependent maximal head-twitch responses by visual observation at 1 mg/kg, sc at 15 to 220 mins; format: functional, organism-based; conditions: time lower 15.0 min, time upper […]

T3 sequence (P41595 whole entry): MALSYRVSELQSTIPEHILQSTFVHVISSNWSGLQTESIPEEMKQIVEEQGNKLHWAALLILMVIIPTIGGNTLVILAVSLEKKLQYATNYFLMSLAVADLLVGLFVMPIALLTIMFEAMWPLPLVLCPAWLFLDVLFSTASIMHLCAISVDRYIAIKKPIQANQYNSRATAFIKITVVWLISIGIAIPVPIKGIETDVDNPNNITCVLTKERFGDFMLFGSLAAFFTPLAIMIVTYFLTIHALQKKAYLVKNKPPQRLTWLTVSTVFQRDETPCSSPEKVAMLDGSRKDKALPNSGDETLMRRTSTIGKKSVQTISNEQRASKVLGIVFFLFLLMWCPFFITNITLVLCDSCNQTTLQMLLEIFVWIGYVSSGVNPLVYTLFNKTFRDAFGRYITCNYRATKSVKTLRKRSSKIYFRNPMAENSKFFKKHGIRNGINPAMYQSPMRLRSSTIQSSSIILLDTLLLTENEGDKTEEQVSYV
T1 sequence (P28223 whole entry): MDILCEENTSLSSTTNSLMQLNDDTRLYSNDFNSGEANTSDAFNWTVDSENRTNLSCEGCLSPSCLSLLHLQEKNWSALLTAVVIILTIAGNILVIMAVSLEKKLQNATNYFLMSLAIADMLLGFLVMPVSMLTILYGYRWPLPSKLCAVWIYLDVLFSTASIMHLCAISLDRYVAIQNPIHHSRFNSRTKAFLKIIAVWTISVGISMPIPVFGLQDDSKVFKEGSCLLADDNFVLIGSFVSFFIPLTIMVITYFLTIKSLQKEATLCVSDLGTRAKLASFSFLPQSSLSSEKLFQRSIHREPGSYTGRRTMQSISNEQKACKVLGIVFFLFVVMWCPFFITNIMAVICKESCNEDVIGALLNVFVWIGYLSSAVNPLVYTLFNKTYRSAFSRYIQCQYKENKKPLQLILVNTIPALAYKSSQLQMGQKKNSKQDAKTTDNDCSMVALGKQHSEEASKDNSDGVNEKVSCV
Muscarinic acetylcholine receptor M5 (Homo sapiens), sequence (P08912 whole entry): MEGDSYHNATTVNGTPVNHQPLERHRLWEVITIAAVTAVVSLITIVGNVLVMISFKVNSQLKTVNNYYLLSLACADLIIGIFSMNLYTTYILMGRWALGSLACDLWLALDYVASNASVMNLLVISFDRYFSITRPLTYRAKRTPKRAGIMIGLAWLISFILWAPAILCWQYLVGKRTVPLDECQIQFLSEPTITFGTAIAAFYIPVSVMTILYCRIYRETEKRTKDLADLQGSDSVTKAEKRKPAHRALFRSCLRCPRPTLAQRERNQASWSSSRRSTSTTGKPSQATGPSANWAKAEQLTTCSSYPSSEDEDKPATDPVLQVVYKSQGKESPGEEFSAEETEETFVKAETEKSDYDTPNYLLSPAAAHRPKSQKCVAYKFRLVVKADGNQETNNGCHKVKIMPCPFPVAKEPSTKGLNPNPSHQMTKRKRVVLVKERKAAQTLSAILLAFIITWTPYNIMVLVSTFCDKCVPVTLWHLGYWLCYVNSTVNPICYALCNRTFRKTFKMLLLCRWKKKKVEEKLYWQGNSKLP
Muscarinic acetylcholine receptor M4 (Homo sapiens), sequence (P08173 whole entry): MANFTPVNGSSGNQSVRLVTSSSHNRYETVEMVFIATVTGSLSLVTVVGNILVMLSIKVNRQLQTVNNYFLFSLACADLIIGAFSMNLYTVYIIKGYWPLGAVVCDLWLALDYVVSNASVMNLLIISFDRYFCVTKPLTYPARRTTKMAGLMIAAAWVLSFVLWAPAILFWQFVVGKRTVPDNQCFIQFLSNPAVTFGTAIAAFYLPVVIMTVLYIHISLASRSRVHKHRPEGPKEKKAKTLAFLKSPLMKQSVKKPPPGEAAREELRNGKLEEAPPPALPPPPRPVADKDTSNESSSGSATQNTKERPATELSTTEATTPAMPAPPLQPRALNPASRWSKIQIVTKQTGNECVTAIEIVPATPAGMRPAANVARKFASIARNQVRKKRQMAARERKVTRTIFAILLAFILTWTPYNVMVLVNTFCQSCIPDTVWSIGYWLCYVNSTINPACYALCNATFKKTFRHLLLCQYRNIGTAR
Voltage-dependent L-type calcium channel subunit alpha-1C, sequence (Q13936 whole entry): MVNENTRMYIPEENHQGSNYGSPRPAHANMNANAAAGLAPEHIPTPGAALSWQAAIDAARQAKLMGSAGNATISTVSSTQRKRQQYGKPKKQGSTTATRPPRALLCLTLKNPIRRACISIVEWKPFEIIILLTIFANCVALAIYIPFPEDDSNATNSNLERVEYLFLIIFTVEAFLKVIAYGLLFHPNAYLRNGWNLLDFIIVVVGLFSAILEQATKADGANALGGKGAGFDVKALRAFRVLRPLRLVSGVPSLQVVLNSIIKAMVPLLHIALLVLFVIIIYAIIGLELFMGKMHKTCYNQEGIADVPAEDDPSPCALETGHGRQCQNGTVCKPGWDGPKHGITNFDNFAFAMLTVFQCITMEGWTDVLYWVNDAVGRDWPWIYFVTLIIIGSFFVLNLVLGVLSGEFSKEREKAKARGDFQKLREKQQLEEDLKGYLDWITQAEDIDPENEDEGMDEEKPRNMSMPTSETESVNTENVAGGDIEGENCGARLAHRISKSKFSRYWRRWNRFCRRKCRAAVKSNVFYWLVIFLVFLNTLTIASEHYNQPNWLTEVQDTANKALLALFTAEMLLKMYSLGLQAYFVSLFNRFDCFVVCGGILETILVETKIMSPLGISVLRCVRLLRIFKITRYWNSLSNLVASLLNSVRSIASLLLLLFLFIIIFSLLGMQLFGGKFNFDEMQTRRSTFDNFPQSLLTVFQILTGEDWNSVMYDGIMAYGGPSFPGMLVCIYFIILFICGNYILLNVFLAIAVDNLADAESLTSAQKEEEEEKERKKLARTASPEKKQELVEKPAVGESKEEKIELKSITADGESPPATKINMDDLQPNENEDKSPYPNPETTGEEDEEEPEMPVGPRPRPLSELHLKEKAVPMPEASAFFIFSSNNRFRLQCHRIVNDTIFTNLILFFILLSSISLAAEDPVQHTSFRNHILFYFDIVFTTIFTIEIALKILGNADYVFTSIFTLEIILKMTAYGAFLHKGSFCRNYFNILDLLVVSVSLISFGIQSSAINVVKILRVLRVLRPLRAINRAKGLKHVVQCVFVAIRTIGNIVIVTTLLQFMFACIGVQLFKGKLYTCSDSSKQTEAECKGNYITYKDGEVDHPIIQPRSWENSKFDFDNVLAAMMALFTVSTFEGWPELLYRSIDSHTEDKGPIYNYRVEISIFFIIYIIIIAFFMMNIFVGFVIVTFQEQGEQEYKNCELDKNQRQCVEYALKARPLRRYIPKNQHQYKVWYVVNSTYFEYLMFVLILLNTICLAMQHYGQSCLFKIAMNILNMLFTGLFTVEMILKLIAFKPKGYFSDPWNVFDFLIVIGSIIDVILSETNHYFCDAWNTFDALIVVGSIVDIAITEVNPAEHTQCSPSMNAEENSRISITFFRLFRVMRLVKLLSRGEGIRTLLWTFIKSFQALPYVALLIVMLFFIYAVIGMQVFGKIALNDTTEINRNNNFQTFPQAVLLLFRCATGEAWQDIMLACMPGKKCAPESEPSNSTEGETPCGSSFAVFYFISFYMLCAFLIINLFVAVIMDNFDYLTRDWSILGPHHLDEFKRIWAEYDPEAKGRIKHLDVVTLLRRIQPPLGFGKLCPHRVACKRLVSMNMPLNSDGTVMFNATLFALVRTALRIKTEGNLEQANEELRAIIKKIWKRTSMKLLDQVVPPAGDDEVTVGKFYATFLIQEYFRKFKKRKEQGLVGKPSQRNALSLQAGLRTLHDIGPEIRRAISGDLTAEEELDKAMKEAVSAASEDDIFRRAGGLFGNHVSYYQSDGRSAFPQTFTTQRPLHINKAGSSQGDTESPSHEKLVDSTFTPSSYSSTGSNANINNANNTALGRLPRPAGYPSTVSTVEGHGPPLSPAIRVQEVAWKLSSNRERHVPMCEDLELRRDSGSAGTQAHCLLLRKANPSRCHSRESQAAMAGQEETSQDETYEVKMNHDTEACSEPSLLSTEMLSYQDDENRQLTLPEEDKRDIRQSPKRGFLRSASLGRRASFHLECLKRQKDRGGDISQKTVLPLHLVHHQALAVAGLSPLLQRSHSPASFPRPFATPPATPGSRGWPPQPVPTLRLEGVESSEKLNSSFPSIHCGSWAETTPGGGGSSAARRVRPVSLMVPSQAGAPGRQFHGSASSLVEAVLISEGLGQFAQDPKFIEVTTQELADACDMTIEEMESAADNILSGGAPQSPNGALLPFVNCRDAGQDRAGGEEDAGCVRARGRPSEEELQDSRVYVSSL
Muscarinic acetylcholine receptor M1 (Homo sapiens), sequence (P11229 whole entry): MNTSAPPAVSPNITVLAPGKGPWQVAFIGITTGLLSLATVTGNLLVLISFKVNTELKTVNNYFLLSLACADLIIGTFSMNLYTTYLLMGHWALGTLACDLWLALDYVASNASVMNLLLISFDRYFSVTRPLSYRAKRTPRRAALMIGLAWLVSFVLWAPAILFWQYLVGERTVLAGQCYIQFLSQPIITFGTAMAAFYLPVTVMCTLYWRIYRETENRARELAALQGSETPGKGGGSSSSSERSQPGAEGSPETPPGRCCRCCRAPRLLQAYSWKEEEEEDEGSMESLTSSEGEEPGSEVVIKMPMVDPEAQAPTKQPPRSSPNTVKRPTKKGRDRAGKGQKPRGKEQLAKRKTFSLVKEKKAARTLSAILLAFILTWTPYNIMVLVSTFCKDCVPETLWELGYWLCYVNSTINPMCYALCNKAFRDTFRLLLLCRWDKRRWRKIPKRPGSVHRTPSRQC

| SMILES | pKi [1] | Activity (Mus musculus [2]) | pKi [3] | pKi [4] | Activity (Mus musculus [5]) | further results |
| --- | --- | --- | --- | --- | --- | --- |
| COc1cc(S(=O)(=O)C(F)(F)F)c(OC)cc1CCN.Cl | 8.72 | 28 | 7.89 | 8.08 | 26 |  |
| COc1cc(SC(C)(C)C)c(OC)cc1CCN |  |  |  |  |  | pEC50 [6]: 6.82; Activity (Mus musculus [7]): inactive |
| Cl.[2H]C([2H])([2H])Oc1cc(C(C)(C)C)c(OC([2H])([2H])[2H])cc1CCN |  |  |  |  |  | Stability [8]: Stable; Stability [9]: Stable |
| COc1cc(OCCC(F)F)c(OC)cc1CCN | 6.41 |  |  |  |  |  |
| COc1cc(SC(F)(F)F)c(OC)cc1CCNCC1CC1 | 8.05 |  |  |  |  | Emax [10]: 63%; pEC50 [6]: 7.32; Activity (Mus musculus [7]): inactive |
| C#CCSc1cc(OC)c(CCN)cc1OC |  |  |  |  |  | Emax [10]: 100%; pEC50 [6]: 9.17 |
| COc1cc(N(C(C)C)C(C)C)c(OC)cc1CCN.Cl.Cl |  |  |  |  |  | logP [11]: 2.7; EC50 [6]: Not Active |
| COc1cc(SSC(F)(F)F)c(OC)cc1CCN.Cl | 7.11 | 3.4 | 7.17 | 7.18 | 1.8 |  |
| COc1cc(C(C)=O)c(OC)cc1CCN.Cl |  |  |  |  |  | logP [11]: 0.42; EC50 [6]: Not Active |
| COc1cc(SC(F)(F)F)c(OC)cc1CC(C)N (centres undefined) |  |  |  |  |  | Emax [10]: 91%; pEC50 [6]: 8.27 |
| COc1cc(SCCCF)c(OC)cc1CCN |  | 4.7 | 8.16 | 8.21 | 7.4 |  |
| Cl.[2H]C([2H])([2H])Oc1cc(SC)c(OC([2H])([2H])[2H])cc1C[C@@H](C)N |  |  |  |  |  | Stability [8]: Stable; Stability [9]: Stable |
| COc1cc(SC(F)F)c(OC)cc1CCN.Cl |  | 17 | 7.80 | 7.62 | 33 | Ki [1]: 6.46 nM |
| Cl.[2H]C([2H])(N)Cc1cc(OC)c(C(F)(F)F)cc1OC |  |  |  |  |  | Stability [8]: Stable; Stability [9]: Stable |
| COc1cc(CC(C)N)c(OC)cc1I (racemic) |  |  |  |  |  | Activity [12]: 82%; inhibition [13]: 72%; inhibition [14]: 76%; Activity (Mus musculus [15]): 2812 cm; Emax [16]: 96%; Emax [17]: 103%; inhibition [18]: 63%; pEC50 ([19]; read-out: EC50): 8.15; EC50 ([19]; read-out: pEC50 (converted)): 7.94 nM; Activity [20]: 56%; Activity (Mus musculus [21]): Active |
| COc1cc(S(=O)(=O)CF)c(OC)cc1CCN.Cl | 8.23 | 2.3 | 7.59 | 7.55 | 1.7 | Ki [1]: 6.03 nM |
| C#CCCCSc1cc(OC)c(CCN)cc1OC | 8.64 |  |  |  |  | Emax [10]: 78%; pEC50 [6]: 8.74 |
| COc1cc(SCC(F)(F)C(F)F)c(OC)cc1CCN.Cl | 7.47 | 5.6 | 7.96 | 8.35 | 3.1 | Ki [1]: 38 nM |
| COc1cc(C(=O)C(C)(C)C)c(OC)cc1CCN |  |  |  |  |  | logP [11]: 2.34; pEC50 [6]: 6.07 |
| COc1cc(SCC(F)F)c(OC)cc1CCN | 6.84 |  |  |  |  |  |
| COc1cc(SCCC(F)F)c(OC)cc1CCN.Cl | 7.64 | 2.6 | 8.05 | 8.17 | 5 |  |
